# Patent publication US6251894A, “1-(1,2-disubstituted piperidinyl)-4 (fused imidazole)-piperidine derivatives” (Janssen Pharmaceuticals N.V., priority 1995, dated 2001)
# Where two headings read alike, the source gives them in different places.
# Key:
# [1] = system: Substance P Induced Plasma Extravasation; assay: Antagonism of substance P induced plasma extravasation in guinea-pigs; format: in vivo, guinea-pig; conditions: Cavia porcellus, 1 hour prior to substance P
# Description: Antagonism of Substance P Induced Plasma Extravasation in Guinea-pigs
# Plasma travasation was induced by injection of substance P (2 mg/kg) in the femoral artery of female guinea-pigs. Evans Blue dye (30 mg/kg) was injected simultaneously. The test compound or solvent was administered subcutaneous (s.c.) or orally (p.o.) 1 hour prior to substance P injection. 10 minutes after challenge, the animals were checked for blue colouring (a direct measure for plasma extravasation) of the nose, the forepaws, and the conjunctiva. 30 minutes after challenge, the animals were sacrificed by CO2 gas inhalation and checked for blue colouring of the trachea and the urinary bladder. […]
# [2] = system: Substance P Induced Relaxation of the Pig Coronary Arteries; assay: Antagonism of substance P induced relaxation of the pig coronary arteries; conditions: 30 min incubation
# Description: Antagonism of Substance P Induced Relaxation of the Pig Coronary Arteries
# Segments of coronary arteries taken from pigs (killed by injection of an overdose of sodium pentobarbital) were inverted and mounted for recording of isometric tension in organ baths (volume 20 ml) with the endothelium at the outside. The preparations were bathed in Krebs-Henseleit solution. The solution was kept at 37° C. and gassed with a mixture of O2 /CO2 (95/5). After stabilisation of the preparations, prostaglandin F2α (10^-5 M) was administered to induce a contraction. This was repeated until contractile responses became stable. Then prostaglandin F2α was again administered and substance P (3×10^-10 M and 10^-9 M cumulatively) was added. Substance P induced endothelium dependent relaxations. After washing away the agonists, a known concentration of a compound of formula (I) was added. After an incubation period of 30 minutes, prostaglandin F2α (10^-5 M) and the same concentrations of substance P as described above were again administered in the presence of the compound to be tested.
# [3] = po, 10 min, p.o., conjunctiva, read-out: lowest active dose (LAD), conjunctiva
# [4] = po, 10 min, p.o., forepaws, read-out: lowest active dose (LAD), forepaws
# [5] = po, 10 min, p.o., nose, read-out: lowest active dose (LAD), nose
# [6] = po, 0.5 h, p.o., trachea, read-out: lowest active dose (LAD), trachea
# [7] = po, 0.5 h, p.o., urinary bladder, read-out: lowest active dose (LAD), urinary bladder
# [8] = test compound concentration 3 × 10^-9 (unit not given)
# [9] = test compound concentration 3 × 10^-8 (unit not given)
structure (smiles),measurement,setting,value
"O=C(c1cc(C(F)(F)F)cc(C(F)(F)F)c1)N1CC[C@@H](N2CCC(C3c4ccccc4Cn4c3nc3ccccc34)CC2)C[C@H]1Cc1ccccc1 (mixture of isomers) [Compound 14, (±)-cis-1-[3,5-bis(trifluoromethyl)benzoyl]-4-[4-(6,11-dihydrobenzimidazo[1,2-b]isoquinolin-6-yl)-1-piperidinyl]-2-phenylmethyl)piperidine]",minimal effective dose,[1]; [3],10 mg/kg
same,minimal effective dose,[1]; [4],10 mg/kg
same,minimal effective dose,[1]; [5],10 mg/kg
same,minimal effective dose,[1]; [6],10 mg/kg
same,minimal effective dose,[1]; [7],10 mg/kg
same,% inhibition of the response to 10^-9 M substance P,[2]; [8],56.6%
"O=C(c1cc(C(F)(F)F)cc(C(F)(F)F)c1)N1CC[C@@H](N2CCC(C3c4ccccc4Cn4c3nc3ccccc34)CC2)C[C@@H]1Cc1ccccc1 (mixture of isomers) [Compound 15, (±)-trans-1-[3,5-bis(trifluoromethyl)benzoyl]-4-[4-(6,11-dihydrobenzimidazo[1,2-b]isoquinolin-6-yl)-1-piperidinyl]-2-phenylmethyl)piperidine]",minimal effective dose,[1]; [3],10 mg/kg
same,minimal effective dose,[1]; [4],10 mg/kg
same,minimal effective dose,[1]; [5],10 mg/kg
same,minimal effective dose,[1]; [6],10 mg/kg
same,minimal effective dose,[1]; [7],10 mg/kg
same,% inhibition of the response to 10^-9 M substance P,[2]; [9],95.4%
"Cc1cc(C)cc(C(=O)N2CC[C@H](N3CCC(=C4c5ccccc5CCn5ccnc54)CC3)C[C@@H]2Cc2ccccc2)c1 (racemic) [Compound 1, (±)-cis-4-[4-(5,6-dihydro-11H-imidazo [2,1-b][3]benzazepin-11-ylidene)-1-piperidinyl]-1-(3,5-dimethylbenzoyl)-2-(phenylmethyl)piperidine]",minimal effective dose,"[1]; sc, 10 min, s.c., conjunctiva, read-out: lowest active dose (LAD), conjunctiva",10 mg/kg
same,minimal effective dose,"[1]; sc, 10 min, s.c., forepaws, read-out: lowest active dose (LAD), forepaws",10 mg/kg
same,minimal effective dose,"[1]; sc, 10 min, s.c., nose, read-out: lowest active dose (LAD), nose",10 mg/kg
same,minimal effective dose,"[1]; sc, 0.5 h, s.c., trachea, read-out: lowest active dose (LAD), trachea",10 mg/kg
same,minimal effective dose,"[1]; sc, 0.5 h, s.c., urinary bladder, read-out: lowest active dose (LAD), urinary bladder",10 mg/kg
same,% inhibition of the response to 10^-9 M substance P,[2]; [9],52.3%
Cc1cc(C)cc(C(=O)N2CCC(N3CCC(=C4c5cccc(C)c5CCn5ccnc54)CC3)CC2Cc2ccccc2)c1 (stereo not shown) [Compound 29],% inhibition of the response to 10^-9 M substance P,[2]; [8],8.1%
Cc1cc(C)cc(C(=O)N2CCC(N3CCC(=C4c5ccn(C)c5CCn5cc(C)nc54)CC3)CC2Cc2ccccc2)c1 (stereo not shown) [Compound 30],% inhibition of the response to 10^-9 M substance P,[2]; [8],15.3%
Cc1cc(C)cc(C(=O)N2CCC(N3CCC(=C4c5ccc(Cl)cc5CCn5ccnc54)CC3)CC2Cc2ccccc2)c1 (stereo not shown) [Compound 31],% inhibition of the response to 10^-9 M substance P,[2]; [8],82.7%
O=C(c1cc(C(F)(F)F)cc(C(F)(F)F)c1)N1CCC(N2CCC(=C3c4ccc(Cl)cc4CCn4ccnc43)CC2)CC1Cc1ccccc1 (stereo not shown) [Compound 32],% inhibition of the response to 10^-9 M substance P,[2]; [8],71.6%
O=C(c1cc(C(F)(F)F)cc(C(F)(F)F)c1)N1CCC(N2CCC(C3c4ccccc4CCn4c3nc3ccccc34)CC2)CC1Cc1ccc(Cl)c(Cl)c1 (stereo not shown) [Compound 64],% inhibition of the response to 10^-9 M substance P,[2]; [8],26.4%
Cc1cc(C)cc(C(=O)N2CCC(N3CCC(C4c5ccccc5CCn5c4nc4ccccc45)CC3)CC2Cc2ccccc2)c1 (stereo not shown) [Compound 65],% inhibition of the response to 10^-9 M substance P,[2]; [8],27.3%
Cc1cc(C)cc(C(=O)N2CC[C@H](N3CCC(C4c5ccccc5CCn5c4nc4ccccc45)CC3)C[C@H]2Cc2ccccc2)c1 (stereo partly shown) [Compound 66],% inhibition of the response to 10^-9 M substance P,[2]; [8],56.6%
O=C(c1cc(C(F)(F)F)cc(C(F)(F)F)c1)N1CCC(N2CCC(C3c4ccccc4CCn4c3nc3ccccc34)CC2)CC1Cc1ccc(F)c(F)c1 (stereo not shown) [Compound 67],% inhibition of the response to 10^-9 M substance P,[2]; [8],64.4%
O=C(c1cc(C(F)(F)F)cc(C(F)(F)F)c1)N1CC[C@H](N2CCC(C3c4ccccc4CCn4c3nc3ccccc34)CC2)C[C@H]1Cc1ccc(F)c(F)c1 (stereo partly shown) [Compound 68],% inhibition of the response to 10^-9 M substance P,[2]; [8],93.1%
Cc1cc(C)cc(C(=O)N2CCC(N3CCC(C4c5ccccc5Cn5c4nc4ccccc45)CC3)CC2Cc2ccccc2)c1 (stereo not shown) [Compound 69],% inhibition of the response to 10^-9 M substance P,[2]; [8],8%
Cc1cc(C)cc(C(=O)N2CC[C@H](N3CCC(C4c5ccccc5Cn5c4nc4ccccc45)CC3)C[C@H]2Cc2ccccc2)c1 (stereo partly shown) [Compound 70],% inhibition of the response to 10^-9 M substance P,[2]; [8],31.2%
O=C(c1ccccc1)N1CCC(N2CCC(C3c4ccccc4Cn4c3nc3ccccc34)CC2)CC1Cc1ccccc1 (stereo not shown) [Compound 73],% inhibition of the response to 10^-9 M substance P,[2]; [8],2.8%
O=C(c1cccc(C(F)(F)F)c1)N1CCC(N2CCC(C3c4ccccc4Cn4c3nc3ccccc34)CC2)CC1Cc1ccccc1 (stereo not shown) [Compound 74],% inhibition of the response to 10^-9 M substance P,[2]; [8],8.6%
O=C(c1ccccc1)N1CC[C@@H](N2CCC(C3c4ccccc4Cn4c3nc3ccccc34)CC2)C[C@@H]1Cc1ccccc1 (stereo partly shown) [Compound 75],% inhibition of the response to 10^-9 M substance P,[2]; [8],13.7%
CC(C(=O)N1CCC(N2CCC(=C3c4ccccc4CCn4ccnc43)CC2)CC1Cc1ccccc1)c1ccccc1 (stereo not shown) [Compound 85],% inhibition of the response to 10^-9 M substance P,[2]; [8],1.8%
O=C(c1cccs1)N1CCC(N2CCC(C3c4ccccc4Cn4c3nc3ccccc34)CC2)CC1Cc1ccccc1 (stereo not shown) [Compound 91],% inhibition of the response to 10^-9 M substance P,[2]; [8],9.2%
O=C(c1ccc2ccccc2c1)N1CCC(N2CCC(C3c4ccccc4Cn4c3nc3ccccc34)CC2)CC1Cc1ccccc1 (stereo not shown) [Compound 92],% inhibition of the response to 10^-9 M substance P,[2]; [8],6.7%
O=C(c1cnc2ccccc2n1)N1CCC(N2CCC(C3c4ccccc4Cn4c3nc3ccccc34)CC2)CC1Cc1ccccc1 (stereo not shown) [Compound 93],% inhibition of the response to 10^-9 M substance P,[2]; [8],3.1%
O=C(c1cc2ccccc2s1)N1CCC(N2CCC(C3c4ccccc4Cn4c3nc3ccccc34)CC2)CC1Cc1ccccc1 (stereo not shown) [Compound 94],% inhibition of the response to 10^-9 M substance P,[2]; [8],8.2%
O=C(c1ccc2ncsc2c1)N1CCC(N2CCC(C3c4ccccc4Cn4c3nc3ccccc34)CC2)CC1Cc1ccccc1 (stereo not shown) [Compound 96],% inhibition of the response to 10^-9 M substance P,[2]; [8],17.3%
Cc1cc(C(=O)N2CC[C@@H](N3CCC(C4c5ccccc5Cn5c4nc4ccccc45)CC3)C[C@@H]2Cc2ccccc2)no1 (stereo partly shown) [Compound 97],% inhibition of the response to 10^-9 M substance P,[2]; [8],5.8%
O=C(c1ccc2ccccc2c1)N1CC[C@@H](N2CCC(C3c4ccccc4Cn4c3nc3ccccc34)CC2)C[C@@H]1Cc1ccccc1 (stereo partly shown) [Compound 98],% inhibition of the response to 10^-9 M substance P,[2]; [8],23.2%
CC(C(=O)N1CC[C@@H](N2CCC(C3c4ccccc4Cn4c3nc3ccccc34)CC2)C[C@@H]1Cc1ccccc1)c1ccccc1 (stereo partly shown) [Compound 99],% inhibition of the response to 10^-9 M substance P,[2]; [8],18.2%
O=C(Nc1cc(C(F)(F)F)cc(C(F)(F)F)c1)N1CC[C@@H](N2CCC(C3c4ccccc4Cn4c3nc3ccccc34)CC2)C[C@@H]1Cc1ccccc1 (stereo partly shown) [Compound 100],% inhibition of the response to 10^-9 M substance P,[2]; [8],13.9%
Cc1c(C(=O)N2CC[C@@H](N3CCC(C4c5ccccc5Cn5c4nc4ccccc45)CC3)C[C@@H]2Cc2ccccc2)oc2ccccc12 (stereo partly shown) [Compound 101],% inhibition of the response to 10^-9 M substance P,[2]; [8],11.8%
O=C(c1ccc2ncsc2c1)N1CC[C@@H](N2CCC(C3c4ccccc4Cn4c3nc3ccccc34)CC2)C[C@@H]1Cc1ccccc1 (stereo partly shown) [Compound 102],% inhibition of the response to 10^-9 M substance P,[2]; [8],17%
O=C(c1ccc(Cl)c(Cl)c1)N1CC[C@@H](N2CCC(C3c4ccccc4Cn4c3nc3ccccc34)CC2)C[C@@H]1Cc1ccccc1 (stereo partly shown) [Compound 103],% inhibition of the response to 10^-9 M substance P,[2]; [8],8.3%
Cc1cc(C)cc(C(=O)N2CCC(N3CCC(=C4c5ccccc5OCn5ccnc54)CC3)CC2Cc2ccccc2)c1 (stereo not shown) [Compound 104],% inhibition of the response to 10^-9 M substance P,[2]; [8],83.0%
Cc1cc(C)cc(C(=O)N2CC[C@@H](N3CCC(C4c5ccccc5Cn5ccnc54)CC3)C[C@@H]2Cc2ccccc2)c1 (stereo partly shown) [Compound 109],% inhibition of the response to 10^-9 M substance P,[2]; [8],13.5%
O=C(c1cc(C(F)(F)F)cc(C(F)(F)F)c1)N1CCC(N2CCC(C3c4ccccc4Cn4ccnc43)CC2)CC1Cc1ccccc1 (stereo not shown) [Compound 115],% inhibition of the response to 10^-9 M substance P,[2]; [8],60.2%
O=C(c1cc(C(F)(F)F)cc(C(F)(F)F)c1)N1CC[C@@H](N2CCC(C3c4ccccc4Cn4ccnc43)CC2)C[C@@H]1Cc1ccccc1 (stereo partly shown) [Compound 116],% inhibition of the response to 10^-9 M substance P,[2]; [8],69.6%
